Data taken from the supplement of paper PMC10307832.

Compound: CN(NC(=O)CC(=O)NN(C)C(=S)c1ccccc1)C(=S)c1ccccc1 [Elesclomol]
Test: relative viability (nuclei count vs DMSO), 5 days (fraction); higher = more cells survive
Method in brief: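 For viability, nuclei in each treated well were divided by nuclei in vehicle wells and the median across plates was taken. Lung cancer cell lines in 1536-well plates were pinned with five library-drug doses (not always all listed) spaced by √10, cultured 5 days without medium change, and imaged at 4× after Hoechst staining, with plates passing only at control CV below 25% and at least one doubling.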

Cell Line | relative viability (0.003162 µM) | relative viability (0.01 µM) | relative viability (0.03162 µM) | relative viability (0.1 µM)
NCI-H650 | 1 | 0.696 | 0.332 | 0.249
NCI-H661 | 0.91 | 0.807 | 0.374 | 0.298
NCI-H727 | 1.04 | 0.699 | 0.494 | 0.301
NCI-H838 | 0.959 | 0.883 | 0.792 | 0.454
NCI-H1355 | 1.02 | 0.685 | 0.593 | 0.297
NCI-H1395 | 0.972 | 0.475 | 0.279 | 0.265
NCI-H1437 | 0.879 | 0.635 | 0.504 | 0.47
NCI-H1650 | 0.394 | 0.281 | 0.16 | 0.114
NCI-H1651 | 0.903 | 0.954 | 0.612 | 0.369
NCI-H1666 | 1.01 | 0.933 | 0.755 | 0.542
NCI-H1703 | 0.273 | 0.173 | 0.0832 | 0.101
NCI-H1734 | 0.976 | 0.794 | 0.32 | 0.127
NCI-H1755 | 1.01 | 0.965 | 0.997 | 0.801
NCI-H1792 | 0.916 | 0.51 | 0.762 | 0.513
NCI-H1793 | 0.893 | 0.635 | 0.892 | 0.251
NCI-H1915 | 0.994 | – | 1 | 0.606
NCI-H1944 | 1.05 | 0.948 | 0.959 | 0.578
NCI-H1975 | 0.988 | 0.732 | 0.278 | 0.181
NCI-H1993 | 0.978 | 0.871 | 0.782 | 0.543

Cell Line | relative viability (0.003162 µM) | relative viability (0.01 µM) | relative viability (0.03162 µM) | relative viability (0.1 µM)
NCI-H2009 | 0.889 | 0.416 | 0.164 | 0.124
NCI-H2023 | 0.907 | 0.305 | 0.204 | 0.0874
NCI-H2085 | 0.998 | 0.873 | 0.569 | 0.385
NCI-H2087 | 0.987 | 0.743 | 0.624 | 0.313
NCI-H2126 | 0.962 | 0.934 | 0.807 | 0.556
NCI-H2170 | 0.967 | 0.938 | 0.986 | 0.657
NCI-H2228 | 0.923 | 0.881 | 0.435 | 0.078
NCI-H2342 | 0.865 | 1.02 | 0.571 | 0.612
NCI-H2347 | 1.01 | 0.918 | 0.858 | 0.616
NCI-H2405 | 1.08 | 0.581 | 0.362 | 0.384
NCI-H3122 | 0.987 | 1 | 0.957 | 0.349
PC-3 [JPC-3] | 1.06 | 0.892 | 1.04 | 0.665
PC-14 | 0.923 | 0.261 | 0.0507 | 0.039
RERF-LC-KJ | 0.816 | 0.493 | 0.316 | 0.311
SK-LU-1 | 1.07 | 0.779 | 0.659 | 0.287
SK-MES-1 | 1.05 | 0.76 | 0.794 | 0.489
SW 1573 | 0.795 | 0.267 | 0.121 | 0.0819
UMC-11 | 1.05 | 0.939 | 0.709 | 0.612
